The values that follow come from US8003630B2, “Combinatorial therapies for the treatment of neoplasias using the opioid growth factor receptor” (The Penn State Research Foundation, priority 2004, dated 2011).

The assay concerns MIA PaCa-2 cells. Description: MIA PaCa-2 xenograft in nude mice, tumor appearance, growth and termination day measurements (Example 7). It is filed as in vivo, BALB/c-nu/nu nude mice. The source says: Male 4 week old BALB/c-nu/nu nude mice purchased from Harlan Laboratories (Indianapolis, Ind.) were housed in pathogen-free isolators in the Department of Comparative Medicine at the Penn State University College of Medicine. All procedures were approved by the IACUC committee of the Penn State University College of Medicine and conformed to the guidelines established by NIH. Mice were allowed 48 hr to acclimate prior to beginning experimentation.
MIA PaCa-2 cells (10^6 cells/mouse) were inoculated into nude mice by subcutaneous injection into the right scapular region; mice were not anesthetized for this procedure.
All drugs were dissolved in saline and prepared weekly. Injections were given within 1 hr of tumor cell inoculation.
Mice were weighed weekly throughout the experiment, and observed daily for the presence of tumors. The latency for a visible tumor to appear, and the time until tumors were measurable (i.e., 62.5 mm^3) were recorded. Tumors were measured using calipers every day after tumor appearance. Tumor volume was calculated using the formula w^2×1×π/6, where the length is the longest dimension, and width is the dimension perpendicular to length.
According to IACUC guidelines, mice were terminated when tumors became ulcerated, or tumors grew to 2 cm in diameter. Forty-five days following tumor cell inoculation, all mice were euthanized by an overdose of sodium pentobarbital (100 mg/kg) and killed by cervical dislocation; mice (with tumors) were weighed. Tumors and spleens were removed and weighed, and the lymph nodes, liver, and spleen examined for metastases.

Marks after values point to notes of the source that are not given here.

Consider [Met^5]-enkephalin [OGF], for which, under “at least p<0.05”, the “day from which tumor volume differed from controls” value was found to be 14 days. Moreover, the “mice with measurable tumors” value (day 10) worked out at 60%. Moreover, the “tumor volumes decreased from control values” (day 45) came out at 46%. Also, for the setting “day 45, means ± SEM”, the “Tumor Volume, mm^3” value was 4849 ± 490*** mm^3 and the “Tumor Weight” value came to 3.5 ± 0.5 g. For the same substance, for the setting “means ± SEM”, the “Latency to measurable tumor” value came out at 14.2 ± 0.8 days and the “Latency to visible tumor” value was determined as 10.7 ± 0.8 days. The “Tumor Incidence, day 16” value (mice with tumor/N) is reported as 10/10. The “Tumor Incidence, day 10” value (mice with tumor/N, OGF 10 mg/kg daily and/or gemcitabine 120 mg/kg every 3 days i.p.) was 6/10. The “weights of tumors decreased from control levels” value (termination day (day 45)) is recorded as 36%.
